The source of these data is PMC7111787 (Virology, 2006).

This test deals with T1, MHV E protein (Murine hepatitis virus strain A59, UniProt P0C2R0).
T1 sequence (P0C2R0 1-83): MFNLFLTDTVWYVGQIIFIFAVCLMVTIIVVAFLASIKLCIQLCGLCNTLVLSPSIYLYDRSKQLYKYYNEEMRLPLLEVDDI
Put plainly: planar lipid bilayer current recording, dose titration. Format: biochemical.

Regarding `N=C(N)NC(=O)c1nc(Cl)c(N2CCCCCC2)nc1N` [HMA, Hexamethylene amiloride], the EC50 (as a rule, the midpoint of the concentration-response curve) turned out to be 10.2 µM. In other words, the double-digit micromolar range.
